According to patent publication US20260365663A1, “EMOPAMIL-BINDING PROTEIN INHIBITORS AND USES THEREOF” (BIOGEN MA INC., priority 2022, published 2026):
Where two headings read alike, the source gives them in different places.

Biological target: T1, EBP (Homo sapiens, UniProt Q15125)
T1 construct: HEK293T cells were utilized as the source of EBP enzyme; endogenous in cells; host or cells: HEK293T
Test: EBP Functional Assay (EBP immunoaffinity LC-MS assay)
Type: biochemical
Description: The EBP immunoaffinity (IA) LC-MS assay measures the potency of small molecule inhibitors of EBP by quantifying their concentration-dependent changes in the enzyme's substrate and product using liquid chromatography atmospheric pressure chemical ionization multiple reaction monitoring mass spectrometry (LC-APCI MRM MS). HEK293T cells were utilized as the source of EBP enzyme. The enzyme was incubated with the small molecule inhibitors at variable concentrations for 30 min. Deuterated form of EBP substrate, zymosterol-d5 (Avanti Polar Lipids, Cat #700068P-1 mg), was then added and the plate was incubated at 37 °C for 4 h. Finally, the sterol isomers were extracted and injected to LC-APCI MRM MS. MRM transition used for the quantification for both zymosterol and dihydrolathosterol (substrate and product of EBP enzymatic reaction, respectively) is 372.3-203.2, CE 30 and DP 80 in positive ion mode. Percent conversion of the zymosterol-d5 to dehydrolathosterol-d5 was used to derive IC50 curves. Tasin-1 (1′-[(4-Methoxyphenyl)sulfonyl]-4-methyl-1,4′-bipiperidine, CAS 792927-06-1) was used as the reference small molecule inhibitor.
Percent conversion versus the compound concentration data were fit to the following 4-parameter logistic model to generate IC50 curves: […]

[1] = HEK293T cells as source of EBP enzyme, zymosterol-d5 substrate, inhibitor 30 min, then 37 °C for 4 h, percent conversion to dehydrolathosterol-d5 by LC-APCI MRM MS, read-out: EBP Functional Assay

T1 sequence (Q15125 whole entry): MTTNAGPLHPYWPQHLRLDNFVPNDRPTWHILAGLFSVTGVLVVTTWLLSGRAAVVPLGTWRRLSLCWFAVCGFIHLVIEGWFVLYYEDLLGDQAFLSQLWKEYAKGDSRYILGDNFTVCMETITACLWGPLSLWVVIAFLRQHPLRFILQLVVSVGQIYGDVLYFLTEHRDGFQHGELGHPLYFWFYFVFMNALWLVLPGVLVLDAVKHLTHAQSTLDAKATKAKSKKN

Row | SMILES | IC50 [1] [nM] | IC50 [nM]
1 | N#Cc1cc(F)cc(S(=O)(=O)N2CC3(CC(N4CC5(COC5)C4)CO3)C2)c1 (centres unmarked) [Example 28, 3-((7-(2-Oxa-6-azaspiro[3.3]heptan-6-yl)-5-oxa-2-azaspiro[3.4]octan-2-yl)sulfonyl)-5-fluorobenzonitrile] | 500 to 3000 | –
2 | COc1ccc(S(=O)(=O)N2CC3(CCC(N4CC5(COC5)C4)C3)C2)c(C)n1 (centres unmarked) [Example 30, 6-(2-((6-Methoxy-2-methylpyridin-3-yl)sulfonyl)-2-azaspiro[3.4]octan-6-yl)-2-oxa-6-azaspiro[3.3]heptane] | 500 to 3000 | –
3 | COc1ccc(S(=O)(=O)N2CC3(CCC(NC4CCC(F)(F)CC4)C3)C2)c(C)n1 (centres unmarked) [Example 31, N-(4,4-Difluorocyclohexyl)-2-((6-methoxy-2-methylpyridin-3-yl)sulfonyl)-2-azaspiro[3.4]octan-6-amine] | 100 to 500 | –
4 | COCCN(C)C1CCC2(C1)CN(S(=O)(=O)c1ccc(OC)nc1C)C2 (centres unmarked) [Example 32, 2-((6-Methoxy-2-methylpyridin-3-yl)sulfonyl)-N-(2-methoxyethyl)-N-methyl-2-azaspiro[3.4]octan-6-amine] | < 100 | –
5 | COCCN(C)C1CCC2(C1)CN(S(=O)(=O)c1cc(C(F)(F)F)nn1C)C2 (centres unmarked) [Example 33, N-(2-Methoxyethyl)-N-methyl-2-((1-methyl-3-(trifluoromethyl)-1H-pyrazol-5-yl)sulfonyl)-2-azaspiro[3.4]octan-6-amine] | 500 to 3000 | –
6 | O=S(=O)(c1ccc(OC(F)F)cc1)N1CC2(CCC(N3CCOCC3)C2)C1 (centres unmarked) [Example 44, 4-(2-((4-(Difluoromethoxy)phenyl)sulfonyl)-2-azaspiro[3.4]octan-6-yl)morpholine] | – | 500 to 3000
7 | Cc1cc(C)c(S(=O)(=O)N2CC3(CC(N4CCOCC4)CO3)C2)c(C)c1 (centres unmarked) [Example 53, 2-(Mesitylsulfonyl)-7-morpholino-5-oxa-2-azaspiro[3.4]octane] | 100 to 500 | –
8 | CC1CCN(C2COC3(C2)CN(S(=O)(=O)c2ccc(OC(F)F)cc2)C3)CC1 (centres unmarked) [Example 54, 2-((4-(Difluoromethoxy)phenyl)sulfonyl)-7-(4-methylpiperidin-1-yl)-5-oxa-2-azaspiro[3.4]octane] | 100 to 500 | –
9 | Cc1cc(S(=O)(=O)N2CC3(CC(N4CCC(C)CC4)CO3)C2)n(C)n1 (centres unmarked) [Example 55, 2-((1,3-Dimethyl-1H-pyrazol-5-yl)sulfonyl)-7-(4-methylpiperidin-1-yl)-5-oxa-2-azaspiro[3.4]octane] | – | 100 to 500
10 | COc1ccc(S(=O)(=O)N2CC3(CC(N4CCC(C)CC4)CO3)C2)c(C)n1 (centres unmarked) [Example 56, 2-((6-Methoxy-2-methylpyridin-3-yl)sulfonyl)-7-(4-methylpiperidin-1-yl)-5-oxa-2-azaspiro[3.4]octane] | – | < 100
11 | Cn1nc(C(F)(F)F)cc1S(=O)(=O)N1CC2(C[C@@H](N3CCOCC3)CO2)C1 [Example 57, (R)-2-((1-methyl-3-(trifluoromethyl)-1H-pyrazol-5-yl)sulfonyl)-7-morpholino-5-oxa-2-azaspiro[3.4]octane] | 500 to 3000 | –
12 | CN(C1CCC(F)(F)CC1)C1COC2(C1)CN(S(=O)(=O)c1cc(C#N)ccc1F)C2 (centres unmarked) [Example 59, 3-((7-((4,4-Difluorocyclohexyl)(methyl)amino)-5-oxa-2-azaspiro[3.4]octan-2-yl)sulfonyl)-4-fluorobenzonitrile] | < 100 | –
13 | Cc1nc(C(C)(F)F)ccc1S(=O)(=O)N1CC2(CC(N3CC4(CCO4)C3)C2)C1 [Example 68, 6-(2-((6-(1,1-difluoroethyl)-2-methylpyridin-3-yl)sulfonyl)-2-azaspiro[3.3]heptan-6-yl)-1-oxa-6-azaspiro[3.3]heptane] | – | 500 to 3000
14 | Cc1nc(C(C)(F)F)ccc1S(=O)(=O)N1CC2(CC(NC3COC3)C2)C1 [Example 69, 2-((6-(1,1-difluoroethyl)-2-methylpyridin-3-yl)sulfonyl)-N-(oxetan-3-yl)-2-azaspiro[3.3]heptan-6-amine] | 500 to 3000 | –
15 | Cc1nc(C(C)(F)F)ccc1S(=O)(=O)N1CC2(CC(NC3CC4(COC4)C3)C2)C1 (centres unmarked) [Example 70, 2-((6-(1,1-difluoroethyl)-2-methylpyridin-3-yl)sulfonyl)-N-(2-oxaspiro[3.3]heptan-6-yl)-2-azaspiro[3.3]heptan-6-amine] | 100 to 500 | –
16 | Cc1nc(C(C)(F)F)ccc1S(=O)(=O)N1CC2(CC(NCC3CCOCC3)C2)C1 [Example 71, 2-((6-(1,1-difluoroethyl)-2-methylpyridin-3-yl)sulfonyl)-N-((tetrahydro-2H-pyran-4-yl)methyl)-2-azaspiro[3.3]heptan-6-amine] | < 100 | –

Second part, the molecule after the results:

Row | IC50 [1] [nM] | IC50 [nM] | SMILES
17 | 500 to 3000 | – | Cc1cnc(S(=O)(=O)N2CC3(CCC(N4CCOCC4)C3)C2)c(C)c1 (centres unmarked) [Example 29, 4-(2-((3,5-Dimethylpyridin-2-yl)sulfonyl)-2-azaspiro[3.4]octan-6-yl)morpholine]
18 | 100 to 500 | – | COc1cc(S(=O)(=O)N2CC3(CCC(N4CCOCC4)C3)C2)n(C)n1 (centres unmarked) [Example 34, 4-(2-((3-Methoxy-1-methyl-1H-pyrazol-5-yl)sulfonyl)-2-azaspiro[3.4]octan-6-yl)morpholine]
19 | 100 to 500 | – | Cn1nc(C(F)(F)F)cc1S(=O)(=O)N1CC2(CCC(N3CCOCC3)C2)C1 (centres unmarked) [Example 35, 4-(2-((1-Methyl-3-(trifluoromethyl)-1H-pyrazol-5-yl)sulfonyl)-2-azaspiro[3.4]octan-6-yl)morpholine]
20 | – | 100 to 500 | Cc1cc(S(=O)(=O)N2CC3(CCC(N4CCOCC4)C3)C2)n(C)n1 (centres unmarked) [Example 36, 4-(2-((1,3-Dimethyl-1H-pyrazol-5-yl)sulfonyl)-2-azaspiro[3.4]octan-6-yl)morpholine]
21 | – | 100 to 500 | Cc1nn(C)c(S(=O)(=O)N2CC3(CCC(N4CCOCC4)C3)C2)c1Cl (centres unmarked) [Example 37, 4-(2-((4-Chloro-1,3-dimethyl-1H-pyrazol-5-yl)sulfonyl)-2-azaspiro[3.4]octan-6-yl)morpholine]
22 | – | 100 to 500 | Cc1nn(C)c(S(=O)(=O)N2CC3(CCC(N4CCOCC4)C3)C2)c1C(F)F (centres unmarked) [Example 38, 4-(2-((4-(Difluoromethyl)-1,3-dimethyl-1H-pyrazol-5-yl)sulfonyl)-2-azaspiro[3.4]octan-6-yl)morpholine]
23 | – | < 100 | COc1ccc(S(=O)(=O)N2CC3(CCC(N4CCOCC4)C3)C2)c(C(F)(F)F)n1 (centres unmarked) [Example 39, 4-(2-((6-Methoxy-2-(trifluoromethyl)pyridin-3-yl)sulfonyl)-2-azaspiro[3.4]octan-6-yl)morpholine]
24 | – | < 100 | Cc1nc(C(F)(F)F)ccc1S(=O)(=O)N1CC2(CCC(N3CCOCC3)C2)C1 (centres unmarked) [Example 40, 4-(2-((2-Methyl-6-(trifluoromethyl)pyridin-3-yl)sulfonyl)-2-azaspiro[3.4]octan-6-yl)morpholine]
25 | – | 100 to 500 | Cc1cc(C(F)(F)F)ncc1S(=O)(=O)N1CC2(CCC(N3CCOCC3)C2)C1 (centres unmarked) [Example 41, 4-(2-((4-Methyl-6-(trifluoromethyl)pyridin-3-yl)sulfonyl)-2-azaspiro[3.4]octan-6-yl)morpholine]
26 | – | < 100 | Cc1nc(Cl)ccc1S(=O)(=O)N1CC2(CCC(N3CCOCC3)C2)C1 (centres unmarked) [Example 42, 4-(2-((6-Chloro-2-methylpyridin-3-yl)sulfonyl)-2-azaspiro[3.4]octan-6-yl)morpholine]
27 | < 100 | – | Cc1cc(C)c(S(=O)(=O)N2CC3(CCC(N4CCOCC4)C3)C2)c(C)c1 (centres unmarked) [Example 43, 4-(2-(Mesitylsulfonyl)-2-azaspiro[3.4]octan-6-yl)morpholine]
28 | – | < 100 | Cc1ccc(S(=O)(=O)N2CC3(CCC(N4CCOCC4)C3)C2)c(C)c1 (centres unmarked) [Example 45, 4-(2-((2,4-Dimethylphenyl)sulfonyl)-2-azaspiro[3.4]octan-6-yl)morpholine]
29 | – | 500 to 3000 | O=S(=O)(c1ccc(F)cc1F)N1CC2(CCC(N3CCOCC3)C2)C1 (centres unmarked) [Example 46, 4-(2-((2,4-Difluorophenyl)sulfonyl)-2-azaspiro[3.4]octan-6-yl)morpholine]
30 | – | 100 to 500 | Cc1cc(C)c(S(=O)(=O)N2CC3(CCC(N4CCOCC4)C3)C2)cn1 (centres unmarked) [Example 47, 4-(2-((4,6-Dimethylpyridin-3-yl)sulfonyl)-2-azaspiro[3.4]octan-6-yl)morpholine]
31 | – | < 100 | COc1ccc(S(=O)(=O)N2CC3(CCC(N4CCOCC4)C3)C2)c(C)n1 (centres unmarked) [Example 48, 4-(2-((6-methoxy-2-methylpyridin-3-yl)sulfonyl)-2-azaspiro[3.4]octan-6-yl)morpholine]
32 | 100 to 500 | – | Cn1nc(C(F)(F)F)cc1S(=O)(=O)N1CC2(CC[C@@H](N3CCOCC3)C2)C1 [Example 49, (R)-4-(2-((1-Methyl-3-(trifluoromethyl)-1H-pyrazol-5-yl)sulfonyl)-2-azaspiro[3.4]octan-6-yl)morpholine]
33 | – | 500 to 3000 | N#Cc1cc(F)cc(S(=O)(=O)N2CC3(CC[C@@H](N4CCOCC4)C3)C2)c1 [Example 50, (R)-3-Fluoro-5-((6-morpholino-2-azaspiro[3.4]octan-2-yl)sulfonyl)benzonitrile]
34 | 100 to 500 | – | Cn1nc(C(F)(F)F)cc1S(=O)(=O)N1CC2(CC[C@H](N3CCOCC3)C2)C1 [Example 51, (S)-4-(2-((1-methyl-3-(trifluoromethyl)-1H-pyrazol-5-yl)sulfonyl)-2-azaspiro[3.4]octan-6-yl)morpholine]
35 | – | 500 to 3000 | N#Cc1cc(F)cc(S(=O)(=O)N2CC3(CC[C@H](N4CCOCC4)C3)C2)c1 [Example 52, (S)-3-Fluoro-5-((6-morpholino-2-azaspiro[3.4]octan-2-yl)sulfonyl)benzonitrile]
